Data on 13 compounds can be found in patent US9150585B2, “Analogs of camptothecin” (FL Therapeutics, LLC, priority 2012, dated 2015).

The conditions of data set [1]: cited from earlier work.
The target of data set [2] is Human serum albumin (HSA) (Homo sapiens, UniProt P02768). In words: in vitro. The following applies: isolated protein. The procedure: Equilibrium dialysis was performed in a 24-well BD Gentest Serum Binding System (BD Biosciences, Woburn, Mass.). Human serum albumin (HSA) at 0.6 mM was prepared by dissolving in phosphate buffered saline (PBS: 4.01 mL 1 M K2HPO4+0.99 mL 1 M KH2PO4+1.37 mL 5 M NaCl+43.63 mL water). After washing and soaking the 24-well BD Gentest Serum Binding System with water, 30% ethanol, and PBS, 750 μL of HSA and 250 μL of PBS were dispensed into each donor and receiver well, respectively. 3.75 μL of 1 mM test compound or wafarin (as control) was spiked into HSA in each donor well. The duplicate incubations were performed at 37° C. for 20 hrs.
Chain of Human serum albumin (HSA) (P02768 25-609): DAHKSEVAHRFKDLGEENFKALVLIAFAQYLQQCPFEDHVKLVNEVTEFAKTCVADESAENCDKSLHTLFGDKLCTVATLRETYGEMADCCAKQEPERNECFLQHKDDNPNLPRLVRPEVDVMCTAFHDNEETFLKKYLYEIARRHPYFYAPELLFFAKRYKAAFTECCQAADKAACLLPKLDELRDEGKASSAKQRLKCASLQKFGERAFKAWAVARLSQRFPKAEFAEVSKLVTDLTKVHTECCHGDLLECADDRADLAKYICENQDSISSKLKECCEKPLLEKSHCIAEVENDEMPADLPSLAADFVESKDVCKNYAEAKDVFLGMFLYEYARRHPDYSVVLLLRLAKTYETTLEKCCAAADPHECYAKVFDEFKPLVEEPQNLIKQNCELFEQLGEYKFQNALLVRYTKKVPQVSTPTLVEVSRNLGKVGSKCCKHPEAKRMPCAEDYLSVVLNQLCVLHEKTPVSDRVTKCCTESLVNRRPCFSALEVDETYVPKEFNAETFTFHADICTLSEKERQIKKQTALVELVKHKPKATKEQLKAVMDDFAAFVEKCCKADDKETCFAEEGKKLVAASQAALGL
After incubation, HSA and buffer samples collected from donor and receiver wells, together with calibration standard samples, were prepared in 96-well plates as shown in Table 5.
The plates were then capped, vortexed, and centrifuged at 3500 rpm for 10 minutes. The supernatant was injected into LC-MS/MS. Sample analysis was performed on an LC/MS/MS system composed of Shimadzu Prominence pumps, SIL-20ACHT autosampler, and Applied Biosystems/MDS Sciex API 3200.

Data set [3] in a line: Persistence in plasma (incubation with human plasma, LC-MS/MS). It is filed as in vitro ADME. The settings on record: for Peak Area Ratio (Analyte/IS) Human Plasma 0 min Replicate 1 / Peak Area Ratio (Analyte/IS) Human Plasma 0 min Replicate 2 / Peak Area Ratio (Analyte/IS) Human Plasma 60 min Replicate 1 / Peak Area Ratio (Analyte/IS) Human Plasma 60 min Replicate 2 / % Remaining after 1-hr Incubation at 37° C. in Human Plasma, Average / % Remaining after 1-hr Incubation at 37° C. in Human Plasma, Replicate 1 / % Remaining after 1-hr Incubation at 37° C. in Human Plasma, Replicate 2: 10 μM. The procedure: Test compounds and control (procaine) were incubated at a concentration of 10 μM with human plasma. The duplicate incubations, conducted in 96-well plates in a shaking water bath maintained at 37° C., were performed for 0 and 60 minutes and quenched by addition of acetonitrile.
After quenching by acetonitrile, the plates were capped, vortexed, and centrifuged at 3000 rpm for 10 minutes. The supernatant was injected into LC-MS/MS.
[formula] […] FL-001 and FL-003 are stable in human plasma, with a percent remaining of 127 and 89, respectively. Using the same protocol, the percent remaining of Camptothecin after 1-hr incubation in human plasma is 11%.

The conditions of data set [4]: in presence of HSA; cited from earlier work.
Setting [5] is: human plasma, 37° C., replicate 1.
The mark [6] stands for this setting: human plasma, 37° C., replicate 2.

Regarding `CC(=O)CC(c1ccccc1)c1c(O)c2ccccc2oc1=O` (stereo not drawn) [Warfarin], the “protein binding in human plasma (literature values)” value in data set [1] is on record as 98-100%.
Turning to `CCCCCCCCC(NC(=O)CCC(=O)O[C@]1(CC)C(=O)OCc2c1cc1n(c2=O)Cc2cc3c(CN(C)C)c(O)ccc3nc2-1)C(=O)O` (stereo partly drawn) [FL-006], the free fraction (fraction unbound) (in general, free concentration divided by total concentration) at 20 h, 5 μM in data set [2] was 0.015.
Turning to `CCCCCCCCCCCCCCCCC(NC(=O)CCC(=O)O[C@]1(CC)C(=O)OCc2c1cc1n(c2=O)Cc2cc3c(CN(C)C)c(O)ccc3nc2-1)C(=O)O` (stereo partly drawn) [FL-004], the unbound share (fraction unbound) at 20 h, 5 μM in data set [2] was less than 0.002.
In data set [2], `CCCCCCCCCCCCCCCCC(NC(=O)C(CCCCN)NC(=O)CCC(=O)O[C@]1(CC)C(=O)OCc2c1cc1n(c2=O)Cc2cc3ccccc3nc2-1)C(=O)O` (stereo partly drawn) [FL-013] returned a fraction unbound at 20 h, 5 μM of less than 0.001.
`CCCCCCCCCCCCC(NC(=O)CCC(=O)O[C@]1(CC)C(=O)OCc2c1cc1n(c2=O)Cc2cc3c(CN(C)C)c(O)ccc3nc2-1)C(=O)O` (stereo partly drawn) [FL-008]: in data set [2], the free fraction (fraction unbound) at 20 h, 5 μM is less than 0.002.
As to `CCCCCCCCCCCCCCCC(=O)N[C@@H](CCC(=O)NCC(=O)O[C@]1(CC)C(=O)OCc2c1cc1n(c2=O)Cc2c-1nc1ccc(O)cc1c2CC)C(=O)O` [FL-033], the fraction unbound at 20 h, 5 μM in data set [2] is less than 0.001.
Still for that read-out and setting: next, `CCCCCCCCCCCCCCCC(=O)N(CCC(=O)O[C@]1(CC)C(=O)OCc2c1cc1n(c2=O)Cc2cc3ccccc3nc2-1)CC(=O)O` [FL-015]: less than 0.001.
In the case of `CCCCCCCCCCCCCCCCC(NC(=O)CCC(=O)O[C@]1(CC)C(=O)OCc2c1cc1n(c2=O)Cc2c-1nc1ccc(O)cc1c2CC)C(=O)O` (stereo partly drawn) [FL-003], in data set [3] (setting [5]), the “Peak Area Ratio (Analyte/IS) Human Plasma 0 min Replicate 1” value stood at 3.91 and the “Peak Area Ratio (Analyte/IS) Human Plasma 60 min Replicate 1” value turned out to be 3.37. Further, in data set [3] (setting [6]), the “Peak Area Ratio (Analyte/IS) Human Plasma 0 min Replicate 2” value is 4.03 and the “Peak Area Ratio (Analyte/IS) Human Plasma 60 min Replicate 2” value is 3.73. In data set [3] (human plasma, 37° C., 1 hr, average of duplicates), the “% Remaining after 1-hr Incubation at 37° C. in Human Plasma, Average” value (“% Remaining after 1-hr Incubation … Average” for short) was 89%. Moreover, in data set [3] (human plasma, 37° C., 1 hr, replicate 1), the “% Remaining after 1-hr Incubation at 37° C. in Human Plasma, Replicate 1” value (from here on “% Remaining after 1-hr Incubation … Replicate 1”) came out at 85%. In data set [3] (human plasma, 37° C., 1 hr, replicate 2), the “% Remaining after 1-hr Incubation at 37° C. in Human Plasma, Replicate 2” value (from here on “% Remaining after 1-hr Incubation … Replicate 2”) is on record as 94%. Also, the fraction unbound at 20 h, 5 μM in data set [2] is less than 0.001.
On to `CCN(CC)CCOC(=O)c1ccc(N)cc1` [Procaine, reference compound], for which, in data set [3] (setting [5]), the “Peak Area Ratio (Analyte/IS) Human Plasma 0 min Replicate 1” value is listed as 0.60 and the “Peak Area Ratio (Analyte/IS) Human Plasma 60 min Replicate 1” value is on record as 0.00. In addition, in data set [3] (setting [6]), the “Peak Area Ratio (Analyte/IS) Human Plasma 0 min Replicate 2” value is given as 1.21 and the “Peak Area Ratio (Analyte/IS) Human Plasma 60 min Replicate 2” value was 0.11. Besides, in data set [3] (human, plasma, 1 h), the “% Remaining after 1-hr Incubation … Average” value came out at 6%; the “% Remaining after 1-hr Incubation … Replicate 1” value is listed as 0%; the “% Remaining after 1-hr Incubation … Replicate 2” value stood at 12%.
Consider `CC[C@@]1(O)C(=O)OCc2c1cc1n(c2=O)Cc2cc3c(N)cccc3nc2-1` [9-Aminocamptothecin], for which the “equilibrium concentration of active (lactone) form in blood” value in data set [4] is given as “less than 0.5%”.
Consider `CCCCCCCCCCCCCCCCC(NC(=O)CCC(=O)O[C@]1(CC)C(=O)OCc2c1cc1n(c2=O)Cc2cc3ccccc3nc2-1)C(=O)O` (stereo partly drawn) [FL-001], for which, in data set [3] (setting [5]), the “Peak Area Ratio (Analyte/IS) Human Plasma 0 min Replicate 1” value is 1.47 and the “Peak Area Ratio (Analyte/IS) Human Plasma 60 min Replicate 1” value was determined as 1.96. Besides, in data set [3] (setting [6]), the “Peak Area Ratio (Analyte/IS) Human Plasma 0 min Replicate 2” value was found to be 1.75 and the “Peak Area Ratio (Analyte/IS) Human Plasma 60 min Replicate 2” value stood at 2.13. In addition, in data set [3] (human, plasma, 1 h), the “% Remaining after 1-hr Incubation … Average” value turned out to be 127%; the “% Remaining after 1-hr Incubation … Replicate 1” value came out at 122%; the “% Remaining after 1-hr Incubation … Replicate 2” value stood at 132%. In addition, in data set [2], the unbound share (fraction unbound) at 20 h, 5 μM was less than 0.001.
As for `CCCCCCCCCCCCCCCCC(NC(=O)CCCC(=O)O[C@]1(CC)C(=O)OCc2c1cc1n(c2=O)Cc2cc3c(CN(C)C)c(O)ccc3nc2-1)C(=O)O` (stereo partly drawn) [FL-010], the fraction unbound at 20 h, 5 μM in data set [2] was less than 0.002.
Turning to `CC[C@@]1(O)C(=O)OCc2c1cc1n(c2=O)Cc2cc3ccccc3nc2-1` [Camptothecin], the “percent remaining after 1-hr incubation in human plasma” value in data set [3] (same protocol, human plasma, 1 hr) turned out to be 11%.
